Earlier results on one compound are cited in patent publication US20160378912A1, “STRUCTURE-BASED MODELING AND TARGET-SELECTIVITY PREDICTION” (EPIGENETX, LLC, priority 2013, published 2016).

Holding throughout (conditions): cited from earlier work
One data set deals with HDAC3 (Homo sapiens, UniProt O15379).
The target in a further data set is HDAC4 (Homo sapiens, UniProt P56524).
In the next data set the target is T1, HDAC10 (Homo sapiens, UniProt Q969S8).
T1 sequence (Q969S8 1-669): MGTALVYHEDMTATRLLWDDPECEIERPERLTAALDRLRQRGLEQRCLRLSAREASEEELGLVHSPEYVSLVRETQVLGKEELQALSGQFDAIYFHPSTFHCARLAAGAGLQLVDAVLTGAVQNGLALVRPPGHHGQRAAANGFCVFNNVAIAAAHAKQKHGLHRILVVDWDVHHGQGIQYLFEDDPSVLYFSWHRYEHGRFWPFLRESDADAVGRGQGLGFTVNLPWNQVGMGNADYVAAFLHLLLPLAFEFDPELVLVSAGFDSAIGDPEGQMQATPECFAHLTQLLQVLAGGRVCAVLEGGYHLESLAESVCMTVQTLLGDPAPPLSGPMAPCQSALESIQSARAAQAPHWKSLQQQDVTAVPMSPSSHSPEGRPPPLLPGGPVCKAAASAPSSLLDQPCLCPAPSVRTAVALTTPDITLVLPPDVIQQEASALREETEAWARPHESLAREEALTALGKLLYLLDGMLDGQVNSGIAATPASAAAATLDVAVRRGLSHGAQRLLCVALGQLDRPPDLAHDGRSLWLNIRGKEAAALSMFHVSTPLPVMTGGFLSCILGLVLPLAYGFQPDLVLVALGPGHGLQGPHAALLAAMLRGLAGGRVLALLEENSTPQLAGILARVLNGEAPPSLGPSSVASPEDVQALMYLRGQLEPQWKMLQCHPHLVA

Setting [1] is: experimental value of modeled complex.
Where [2] appears, read: training set, read-out: HDACs inhibitory activities IC50.

Sequence of HDAC3 (O15379 whole entry): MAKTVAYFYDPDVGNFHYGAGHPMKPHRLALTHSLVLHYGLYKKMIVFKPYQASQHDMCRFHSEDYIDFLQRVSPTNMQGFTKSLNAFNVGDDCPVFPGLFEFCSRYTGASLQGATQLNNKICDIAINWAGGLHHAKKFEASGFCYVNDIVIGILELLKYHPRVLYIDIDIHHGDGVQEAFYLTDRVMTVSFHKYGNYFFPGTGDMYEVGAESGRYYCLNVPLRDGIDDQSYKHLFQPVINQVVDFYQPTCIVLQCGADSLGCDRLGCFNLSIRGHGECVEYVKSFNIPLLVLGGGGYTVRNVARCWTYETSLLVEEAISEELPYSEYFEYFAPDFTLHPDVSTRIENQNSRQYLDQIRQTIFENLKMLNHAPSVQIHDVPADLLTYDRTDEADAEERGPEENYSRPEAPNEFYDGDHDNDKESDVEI
Sequence of HDAC3 (Q9Y618 395-489 partner limits assumed): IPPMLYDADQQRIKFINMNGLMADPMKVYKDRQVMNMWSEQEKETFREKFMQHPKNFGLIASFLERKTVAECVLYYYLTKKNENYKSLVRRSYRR
Sequence of HDAC4 (P56524 whole entry): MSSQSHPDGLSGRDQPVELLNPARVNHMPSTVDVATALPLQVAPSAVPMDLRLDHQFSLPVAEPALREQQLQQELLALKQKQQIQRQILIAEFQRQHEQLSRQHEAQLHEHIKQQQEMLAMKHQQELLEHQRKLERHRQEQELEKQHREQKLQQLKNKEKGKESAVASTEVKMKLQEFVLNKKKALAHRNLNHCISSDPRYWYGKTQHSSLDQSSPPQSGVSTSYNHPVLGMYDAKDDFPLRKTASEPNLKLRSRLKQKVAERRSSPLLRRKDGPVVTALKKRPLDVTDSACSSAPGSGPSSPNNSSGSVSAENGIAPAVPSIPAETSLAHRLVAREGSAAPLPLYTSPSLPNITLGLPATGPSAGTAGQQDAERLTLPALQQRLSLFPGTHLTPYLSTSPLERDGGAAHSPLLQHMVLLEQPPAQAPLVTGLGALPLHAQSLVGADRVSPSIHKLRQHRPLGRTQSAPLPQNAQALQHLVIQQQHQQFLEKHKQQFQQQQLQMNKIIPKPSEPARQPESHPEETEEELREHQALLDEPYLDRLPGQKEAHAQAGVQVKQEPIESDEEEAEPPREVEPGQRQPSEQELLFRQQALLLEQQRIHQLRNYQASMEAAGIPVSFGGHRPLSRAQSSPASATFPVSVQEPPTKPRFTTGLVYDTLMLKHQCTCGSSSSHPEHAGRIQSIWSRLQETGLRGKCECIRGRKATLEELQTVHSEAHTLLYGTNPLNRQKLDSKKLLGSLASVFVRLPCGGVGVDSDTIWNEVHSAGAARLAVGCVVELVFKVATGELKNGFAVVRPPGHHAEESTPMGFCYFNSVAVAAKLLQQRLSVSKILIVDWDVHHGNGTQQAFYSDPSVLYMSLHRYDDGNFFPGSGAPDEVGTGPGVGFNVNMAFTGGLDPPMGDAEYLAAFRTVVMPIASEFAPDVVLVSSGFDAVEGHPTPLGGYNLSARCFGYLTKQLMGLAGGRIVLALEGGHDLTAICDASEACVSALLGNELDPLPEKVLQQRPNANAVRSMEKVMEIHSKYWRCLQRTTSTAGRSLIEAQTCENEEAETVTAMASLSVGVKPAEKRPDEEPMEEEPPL

For the compound `CCCC(=O)O` [NABUT, Butyrate], the results for the pIC50exp at HDAC3 (setting [1]) and on HDAC10 (setting [1]) were 4.648 and 3.535, respectively. Also, the pIC50 on HDAC3 (training set composition) is reported as 4.65; at HDAC4 (training set composition) it was 4.52; at HDAC10 (training set composition), 3.54. The figures for the IC50 at HDAC3 (setting [2]), on HDAC4 (setting [2]) and on HDAC10 (setting [2]) were 22.5 µM, 30 µM and 292 µM, respectively.

As usually defined, the pIC50 is the negative decadic logarithm of the IC50, by convention in mol/L. The IC50 is the concentration at which inhibition is half-maximal.
